Source: publication PMC6576746, “Rational discovery of dual-indication multi-target PDE/Kinase inhibitor for precision anti-cancer therapy using structural systems pharmacology” (PLoS Computational Biology, 2019)

What was measured:
Experiment in all cases: biochemical
Parameters in all cases: DiscoverX KinomeScan competition binding assay across human kinases; per cent of control at 10 and 100 uM
CDK5 = CDK5 (Homo sapiens, UniProt Q00535); conditions: competition binding, % of control; read-out: Percent Control (100 uM Levosimendan)
Description: (§1) To validate our computational predictions, we employed a competition binding assay to detect the binding of levosimendan to 425 human kinases as well as its dose-response curve to RIOK1. The proprietary KinomeScan assay was performed by DiscoverX (Fremont, California, USA). The tests were performed at 10 μM and 100 μM concentrations of levosimendan, respectively. Assay results were reported as %control, calculated as follows: %control=(TestCompoundSignal−PositiveControlSignal)/(NegativeControlSignal−PositiveControlSignal)×100 KinomeScan assay across 452 human kinases verified our computational prediction (S1 Table). RIOK1 is one of the strongest inhibited kinases by levosimendan. The percentage control of RIOK1 is 15.0 and 0.0 under the treatment of 10 μM and 100 μM of levosimendan, respectively. […] The percentage controls of five kinases: FLT3, MAP2K5, PIP5K1A, GAK, and KIT are less than 30.0 under the treatment of both 10 μM and 100 μM of levosimendan. Both FLT3 and KIT are tyrosine protein kinases. Their inhibitors have recently been approved for the treatment of Acute Myeloid Leukemia and other types of cancers, but a combination therapy is needed to overcome rapidly emerged drug resistance, thus improve patients’ drug responses. Other kinases inhibited by levosimendan belong to serine/threonine protein kinase family (RIOK1, RIOK3, GAK, and MAP2K5) and lipid kinase family (PIP5K1A). […] As a result, levosimendan may modulate different cancer pathways from those by the tyrosine protein kinase inhibitors, and it could be a novel lead compound for a new anti-cancer therapy to overcome drug resistance of existing drugs or to target different types of cancers through polypharmacology or drug combination.

CDK9 = CDK9 (Homo sapiens, UniProt P50750); conditions: competition binding, % of control; read-out: Percent Control (100 uM Levosimendan)
Description: as §1

CSNK1G1 = CSNK1G1 (Homo sapiens, UniProt Q9HCP0); conditions: competition binding, % of control; read-out: Percent Control (100 uM Levosimendan)
Description: as §1

EPHA6 = EPHA6 (Homo sapiens, UniProt Q9UF33); conditions: competition binding, % of control; read-out: Percent Control (100 uM Levosimendan)
Description: as §1

FAK = biological target: T1, FAK (Homo sapiens, UniProt Q05397); conditions: competition binding, % of control; read-out: Percent Control (100 uM Levosimendan)
T1 construct: gene PTK2
Description: as §1

FGR = FGR (Homo sapiens, UniProt P09769); conditions: competition binding, % of control
Description: as §1

GCN2(Kin.Dom.2,S808G) = biological target: T2, GCN2(Kin.Dom.2,S808G) (Homo sapiens, UniProt Q9P2K8, S808G); conditions: competition binding, % of control; read-out: Percent Control (100 uM Levosimendan)
T2 construct: gene EIF2AK4; Kin.Dom.2
Description: as §1

MAP4K3 = MAP4K3 (Homo sapiens, UniProt Q8IVH8); conditions: competition binding, % of control; read-out: Percent Control (100 uM Levosimendan)
Description: as §1

PIK3CA(H1047L) = PIK3CA(H1047L) (Homo sapiens, UniProt P42336, H1047L); conditions: competition binding, % of control; read-out: Percent Control (100 uM Levosimendan)
Description: as §1

RIOK3 = biological target: T3, RIOK3 (Homo sapiens, UniProt O14730); conditions: competition binding, % of control
T3 sequence (O14730 1-519): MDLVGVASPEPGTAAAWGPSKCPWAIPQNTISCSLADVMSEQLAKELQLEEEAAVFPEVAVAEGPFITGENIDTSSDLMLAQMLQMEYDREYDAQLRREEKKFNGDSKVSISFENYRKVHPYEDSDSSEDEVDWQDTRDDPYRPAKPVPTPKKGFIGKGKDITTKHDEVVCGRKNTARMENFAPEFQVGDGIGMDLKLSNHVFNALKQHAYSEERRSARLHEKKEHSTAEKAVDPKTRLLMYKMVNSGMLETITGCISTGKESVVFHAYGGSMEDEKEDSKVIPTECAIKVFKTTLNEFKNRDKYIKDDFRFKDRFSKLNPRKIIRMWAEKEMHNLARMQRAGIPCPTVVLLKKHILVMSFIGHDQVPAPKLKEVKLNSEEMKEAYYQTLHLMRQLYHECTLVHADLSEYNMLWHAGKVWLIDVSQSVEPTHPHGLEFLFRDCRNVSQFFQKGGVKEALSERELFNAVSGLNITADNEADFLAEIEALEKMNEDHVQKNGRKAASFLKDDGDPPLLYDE
Description: as §1

[1] = biological target: T4, RSK2(Kin.Dom.1-N-terminal) (Homo sapiens, UniProt P51812); conditions: competition binding, % of control
T4 construct: gene RPS6KA3; Kin.Dom.1-N-terminal
Description: as §1

SLK = SLK (Homo sapiens, UniProt Q9H2G2); conditions: competition binding, % of control; read-out: Percent Control (100 uM Levosimendan)
Description: as §1

TLK1 = TLK1 (Homo sapiens, UniProt Q9UKI8); conditions: competition binding, % of control; read-out: Percent Control (100 uM Levosimendan)
Description: as §1

VEGFR2 = biological target: T5, VEGFR2 (Homo sapiens, UniProt P35968); conditions: competition binding, % of control; read-out: Percent Control (100 uM Levosimendan)
T5 construct: gene KDR
Description: as §1

[2] = read-out: Percent Control (10 uM Levosimendan)
[3] = read-out: Percent Control (100 uM Levosimendan)

T4 sequence (P51812 whole entry): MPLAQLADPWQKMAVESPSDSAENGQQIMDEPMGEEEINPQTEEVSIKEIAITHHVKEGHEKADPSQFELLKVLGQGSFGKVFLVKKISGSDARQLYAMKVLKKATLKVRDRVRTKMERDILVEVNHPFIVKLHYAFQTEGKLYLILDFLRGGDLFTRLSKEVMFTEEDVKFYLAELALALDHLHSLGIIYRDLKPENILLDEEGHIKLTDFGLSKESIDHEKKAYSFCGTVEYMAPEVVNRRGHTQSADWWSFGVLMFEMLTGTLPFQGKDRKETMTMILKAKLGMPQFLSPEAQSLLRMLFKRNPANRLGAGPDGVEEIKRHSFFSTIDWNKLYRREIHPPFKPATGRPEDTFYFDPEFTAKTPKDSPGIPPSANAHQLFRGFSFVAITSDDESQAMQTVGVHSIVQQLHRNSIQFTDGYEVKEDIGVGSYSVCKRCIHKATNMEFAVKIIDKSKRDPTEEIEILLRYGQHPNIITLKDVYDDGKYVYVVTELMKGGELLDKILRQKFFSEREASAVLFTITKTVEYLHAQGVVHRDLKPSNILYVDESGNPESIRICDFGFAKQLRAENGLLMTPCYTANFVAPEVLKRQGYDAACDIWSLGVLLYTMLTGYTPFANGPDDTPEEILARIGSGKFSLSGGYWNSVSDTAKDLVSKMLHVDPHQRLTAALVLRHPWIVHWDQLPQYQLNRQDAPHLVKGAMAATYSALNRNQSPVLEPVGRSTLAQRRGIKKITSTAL
FGR, sequence (P09769 whole entry): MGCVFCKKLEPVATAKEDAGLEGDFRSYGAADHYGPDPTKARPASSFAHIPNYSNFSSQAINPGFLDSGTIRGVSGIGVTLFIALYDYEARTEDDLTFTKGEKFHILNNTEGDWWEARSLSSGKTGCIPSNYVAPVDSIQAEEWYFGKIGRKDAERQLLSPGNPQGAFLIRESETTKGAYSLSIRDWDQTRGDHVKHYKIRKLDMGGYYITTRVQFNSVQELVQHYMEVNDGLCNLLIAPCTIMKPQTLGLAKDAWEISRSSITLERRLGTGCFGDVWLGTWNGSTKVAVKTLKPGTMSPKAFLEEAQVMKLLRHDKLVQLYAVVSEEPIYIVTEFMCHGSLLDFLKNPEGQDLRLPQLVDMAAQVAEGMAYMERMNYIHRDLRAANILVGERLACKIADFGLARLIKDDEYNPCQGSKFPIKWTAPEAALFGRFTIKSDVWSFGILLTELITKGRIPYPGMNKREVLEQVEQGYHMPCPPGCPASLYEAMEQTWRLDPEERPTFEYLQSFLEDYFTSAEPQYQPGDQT
T5 sequence (P35968 whole entry): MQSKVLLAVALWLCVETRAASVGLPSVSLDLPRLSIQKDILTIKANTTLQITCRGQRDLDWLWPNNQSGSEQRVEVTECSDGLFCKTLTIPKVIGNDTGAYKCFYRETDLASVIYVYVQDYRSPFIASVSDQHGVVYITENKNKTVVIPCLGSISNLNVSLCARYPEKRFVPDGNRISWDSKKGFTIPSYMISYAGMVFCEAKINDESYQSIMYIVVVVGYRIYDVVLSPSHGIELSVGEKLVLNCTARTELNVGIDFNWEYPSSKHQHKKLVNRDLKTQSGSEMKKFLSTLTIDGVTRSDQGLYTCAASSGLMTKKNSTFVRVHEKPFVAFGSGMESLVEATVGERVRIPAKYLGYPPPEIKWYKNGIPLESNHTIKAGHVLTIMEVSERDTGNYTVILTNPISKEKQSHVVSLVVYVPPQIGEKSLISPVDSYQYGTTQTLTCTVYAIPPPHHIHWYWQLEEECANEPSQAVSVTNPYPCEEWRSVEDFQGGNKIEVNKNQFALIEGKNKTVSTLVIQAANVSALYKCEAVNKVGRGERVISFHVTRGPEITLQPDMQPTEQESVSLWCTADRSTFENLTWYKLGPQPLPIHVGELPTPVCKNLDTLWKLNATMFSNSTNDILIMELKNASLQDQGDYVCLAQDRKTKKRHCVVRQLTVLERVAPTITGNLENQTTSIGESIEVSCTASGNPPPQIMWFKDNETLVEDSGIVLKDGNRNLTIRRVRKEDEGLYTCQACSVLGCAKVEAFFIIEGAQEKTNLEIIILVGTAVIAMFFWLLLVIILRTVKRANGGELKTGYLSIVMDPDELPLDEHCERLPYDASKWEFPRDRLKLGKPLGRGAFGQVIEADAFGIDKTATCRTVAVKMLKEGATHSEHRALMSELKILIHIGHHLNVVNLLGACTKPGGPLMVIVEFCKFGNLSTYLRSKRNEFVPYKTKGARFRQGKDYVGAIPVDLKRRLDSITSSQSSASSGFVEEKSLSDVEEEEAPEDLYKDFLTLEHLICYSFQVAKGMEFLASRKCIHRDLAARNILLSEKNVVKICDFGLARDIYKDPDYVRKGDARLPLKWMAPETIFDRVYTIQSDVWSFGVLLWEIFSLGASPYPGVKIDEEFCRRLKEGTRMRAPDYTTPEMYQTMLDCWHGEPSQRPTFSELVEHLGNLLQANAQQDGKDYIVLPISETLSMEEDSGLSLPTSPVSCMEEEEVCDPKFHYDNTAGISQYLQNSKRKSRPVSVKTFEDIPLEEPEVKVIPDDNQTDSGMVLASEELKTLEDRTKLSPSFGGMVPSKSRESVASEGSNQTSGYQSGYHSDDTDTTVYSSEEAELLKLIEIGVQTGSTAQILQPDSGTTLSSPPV
T1 sequence (Q05397 whole entry): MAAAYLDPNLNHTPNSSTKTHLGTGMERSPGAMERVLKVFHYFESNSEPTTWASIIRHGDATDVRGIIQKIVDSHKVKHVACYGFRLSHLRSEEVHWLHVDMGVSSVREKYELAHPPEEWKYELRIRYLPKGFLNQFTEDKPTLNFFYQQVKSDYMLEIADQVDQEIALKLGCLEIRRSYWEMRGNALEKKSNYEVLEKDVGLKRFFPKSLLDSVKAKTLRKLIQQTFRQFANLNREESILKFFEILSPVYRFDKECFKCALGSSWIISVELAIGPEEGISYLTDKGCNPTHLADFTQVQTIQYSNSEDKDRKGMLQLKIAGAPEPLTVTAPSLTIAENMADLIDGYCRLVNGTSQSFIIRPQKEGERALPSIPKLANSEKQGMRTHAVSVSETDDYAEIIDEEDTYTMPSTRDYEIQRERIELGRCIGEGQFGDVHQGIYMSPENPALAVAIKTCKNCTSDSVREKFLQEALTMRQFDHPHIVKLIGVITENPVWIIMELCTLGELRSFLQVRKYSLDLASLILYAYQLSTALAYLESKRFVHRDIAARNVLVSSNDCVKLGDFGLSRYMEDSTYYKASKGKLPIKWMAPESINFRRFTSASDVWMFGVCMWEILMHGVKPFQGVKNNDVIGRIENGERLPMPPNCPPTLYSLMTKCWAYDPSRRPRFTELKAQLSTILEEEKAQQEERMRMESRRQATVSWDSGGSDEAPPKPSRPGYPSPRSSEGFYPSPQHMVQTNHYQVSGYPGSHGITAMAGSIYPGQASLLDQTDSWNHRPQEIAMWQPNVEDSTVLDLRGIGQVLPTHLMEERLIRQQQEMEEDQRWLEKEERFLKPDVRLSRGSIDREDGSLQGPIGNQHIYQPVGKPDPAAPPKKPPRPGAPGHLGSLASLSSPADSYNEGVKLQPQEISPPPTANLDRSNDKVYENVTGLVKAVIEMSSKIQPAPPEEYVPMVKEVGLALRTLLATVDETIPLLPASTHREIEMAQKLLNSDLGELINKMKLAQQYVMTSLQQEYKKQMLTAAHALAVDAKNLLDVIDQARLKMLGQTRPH
MAP4K3, sequence (Q8IVH8 whole entry): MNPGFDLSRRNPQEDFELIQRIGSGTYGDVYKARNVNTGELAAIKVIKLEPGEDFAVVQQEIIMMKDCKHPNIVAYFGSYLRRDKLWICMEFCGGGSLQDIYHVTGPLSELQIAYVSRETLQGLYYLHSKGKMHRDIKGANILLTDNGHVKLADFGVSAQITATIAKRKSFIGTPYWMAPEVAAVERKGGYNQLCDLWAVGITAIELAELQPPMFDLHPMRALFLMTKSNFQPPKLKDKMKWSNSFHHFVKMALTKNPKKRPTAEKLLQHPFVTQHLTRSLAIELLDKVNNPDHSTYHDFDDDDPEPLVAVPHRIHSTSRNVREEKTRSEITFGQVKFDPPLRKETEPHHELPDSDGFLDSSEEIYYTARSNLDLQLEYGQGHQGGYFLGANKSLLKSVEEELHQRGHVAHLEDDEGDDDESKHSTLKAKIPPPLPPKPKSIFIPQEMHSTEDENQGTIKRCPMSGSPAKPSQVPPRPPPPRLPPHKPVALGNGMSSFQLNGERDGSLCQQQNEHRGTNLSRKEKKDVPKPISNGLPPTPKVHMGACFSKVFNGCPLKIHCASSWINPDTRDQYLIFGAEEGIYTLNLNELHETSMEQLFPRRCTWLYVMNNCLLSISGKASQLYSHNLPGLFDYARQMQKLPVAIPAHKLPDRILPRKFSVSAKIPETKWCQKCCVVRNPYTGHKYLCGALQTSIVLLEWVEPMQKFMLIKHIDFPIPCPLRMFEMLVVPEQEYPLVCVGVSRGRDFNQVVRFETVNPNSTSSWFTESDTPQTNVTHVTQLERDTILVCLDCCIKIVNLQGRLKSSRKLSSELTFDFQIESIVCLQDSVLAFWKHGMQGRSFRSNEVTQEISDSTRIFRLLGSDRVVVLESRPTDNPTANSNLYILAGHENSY
CSNK1G1, sequence (Q9HCP0 whole entry): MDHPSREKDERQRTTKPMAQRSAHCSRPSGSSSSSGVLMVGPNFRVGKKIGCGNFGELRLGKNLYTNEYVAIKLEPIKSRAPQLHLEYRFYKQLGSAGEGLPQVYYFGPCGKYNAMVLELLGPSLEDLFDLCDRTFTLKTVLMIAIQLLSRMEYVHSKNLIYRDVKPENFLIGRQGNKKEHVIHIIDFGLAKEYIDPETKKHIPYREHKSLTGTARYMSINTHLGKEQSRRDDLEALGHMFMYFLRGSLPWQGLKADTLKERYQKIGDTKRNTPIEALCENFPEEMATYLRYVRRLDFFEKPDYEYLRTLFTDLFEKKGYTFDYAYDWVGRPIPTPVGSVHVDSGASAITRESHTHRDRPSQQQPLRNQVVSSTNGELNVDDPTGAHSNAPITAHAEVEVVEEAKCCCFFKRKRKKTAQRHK

Compound C[C@@H]1CC(=O)NN=C1c1ccc(NN=C(C#N)C#N)cc1 [levosimendan] has a remaining binding at 100 µM (CDK5) of 100%, a remaining binding at 100 µM (CDK9) of 100% and a remaining binding at 100 µM (CSNK1G1) of 78%. The remaining binding at 100 µM (EPHA6) was 98%, the remaining binding at 100 µM (FAK) was 89% and the remaining binding at 10 µM (FGR; [2]) was 100%. For the same compound, the remaining binding at 100 µM (FGR; [3]) was 49%, the remaining binding at 100 µM (GCN2(Kin.Dom.2,S808G)) was 100% and the remaining binding at 100 µM (MAP4K3) was 95%. For the same compound, the remaining binding at 100 µM (PIK3CA(H1047L)) was 100%, the remaining binding at 10 µM (RIOK3; [2]) was 15% and the remaining binding at 100 µM (RIOK3; [3]) was 0%. For the same compound, the remaining binding at 10 µM [1, 2] was 85%, the remaining binding at 100 µM [1, 3] was 35% and the remaining binding at 100 µM (SLK) was 85%. For the same compound, the remaining binding at 100 µM (TLK1) was 100% and the remaining binding at 100 µM (VEGFR2) was 100%.
